How the values were obtained:
Leu336Ala GPR84 = target: T1, Leu336Ala GPR84 (Homo sapiens, UniProt Q9NQS5, L336A); experiment: pThr263/pThr264 immunoblot of immunoprecipitated GPR84-eYFP; format: cell-based; details: 1 μM
T1 construct: expressed in transfected cells
Protocol: (§1) eYFP-linked receptor constructs were immunoprecipitated from 200 μl cell lysates using GFP-Trap® agarose beads (Proteintech) according to manufacturer’s instructions. Immunocomplexes were washed three times in washing buffer, resuspended in 100 μl 2 × SDS-PAGE sample buffer and incubated at 60 °C for 10 min. Following centrifugation at 2500g for 5 min, 20 μl of immunoprecipitated proteins was resolved by SDS-PAGE on 4% to 12% BisTris gels. After separation, the proteins were transferred electrophoretically onto nitrocellulose membrane, which was then blocked using 5% bovine serum albumin (BSA) in Tris-buffered saline (TBS, 50 mM Tris-Cl, 150 mM NaCl, pH 7.6) for 1 h at room temperature on an orbital shaker. The membrane was then incubated with appropriate primary antibody in 5% BSA in TBS supplemented with 0.1% Tween (TBS-T) overnight at 4 °C. Anti-pThr^263/pThr^264 antiserum was diluted 1:2000 and anti-GFP was diluted 1:10,000. Subsequently, the membrane was washed (3 × 10 min with TBS-T) and incubated for 2 h with anti-rabbit secondary antibody diluted 1:10,000 in 5% BSA in TBS-T. After washing (3 × 10 min with TBS-T), proteins were detected using an Odyssey imaging system (Licor) according to the manufacturer’s instructions.

Phe187Ala GPR84 = target: T2, Phe187Ala GPR84 (Homo sapiens, UniProt Q9NQS5, F187A); experiment: as above; format: cell-based; details: 1 μM, compared to OX04954 and OX04539
T2 construct: expressed in transfected cells
Protocol: as §1

[1] = pKa measurement (Sirius T3 UV-metric and pH-metric titration); format: physicochemical; details: 25 °C, ionic strength 0.15 M; read-out: measured pKa of the hydroxyl group
Protocol: OX04529 pKa was determined using a UV-metric titration method on a Sirius T3 with a combination Ag/AgCl pH electrode. 5 μL of OX04529 stock solution was added to 25 μL of a neutral linear buffer. The sample was then pre-acidified to pH < 2.0 using 0.5 M HCl and titrated three times until pH > 12.0 using 0.5 M KOH. Titrations were carried out at a constant ionic strength of 0.15 M (adjusted with KCl) and maintained at 25.0 ±0.5 °C. UV absorbance data across varying wavelengths and pH values were recorded. Molar absorption profiles and species distribution plots were generated in the Sirius T3 software, from which apparent pKa value was calculated.
OX04529 pKa was measured using pH-metric titration on the Sirius T3 system. The solution was pre-acidified to pH < 3.0 with 0.5 M HCl and titrated three times until pH > 11.0 using 0.5 M KOH.

T2 sequence (Q9NQS5 whole entry F187A): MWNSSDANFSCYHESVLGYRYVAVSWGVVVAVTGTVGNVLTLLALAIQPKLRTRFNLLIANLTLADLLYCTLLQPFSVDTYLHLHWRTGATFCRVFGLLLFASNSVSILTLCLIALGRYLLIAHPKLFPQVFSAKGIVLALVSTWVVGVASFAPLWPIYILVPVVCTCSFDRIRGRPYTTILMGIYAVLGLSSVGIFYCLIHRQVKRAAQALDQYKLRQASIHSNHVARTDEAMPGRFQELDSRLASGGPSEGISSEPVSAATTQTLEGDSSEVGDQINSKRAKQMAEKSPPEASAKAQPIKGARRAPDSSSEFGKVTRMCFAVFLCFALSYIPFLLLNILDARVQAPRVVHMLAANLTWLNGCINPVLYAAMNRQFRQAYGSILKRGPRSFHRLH
T1 sequence (Q9NQS5 whole entry L336A): as the sequence (Q9NQS5 whole entry F187A) above, with A187F, L336A counted along it

[O-][n+]1cc(O)cc(CCc2ccc(Cl)c(C(F)(F)F)c2)c1 [OX04529]
phosphorylation of Thr263 and Thr264 (immunoblot) (Leu336Ala GPR84): full agonist
phosphorylation of Thr263 and Thr264 (immunoblot) (Phe187Ala GPR84): partial effect
pKa [1]: 6.26

From publication doi:10.1101/2025.07.30.667614, “Steric control of signaling bias in the immunometabolic receptor GPR84” (bioRxiv, 2025)
